The results in this text go back to ChEMBL document CHEMBL3616421, “Discovery of novel isatin-dehydroepiandrosterone conjugates as potential anticancer agents” (Bioorg Med Chem Lett, 2015).

Holding throughout (type): functional, cell-based
Test [1] is described as follows: (§1) Cytotoxicity against human A875 cells assessed as growth inhibition after 72 hrs by MTT assay. The settings on record: A875, 72 h. (In general: Tetrazolium dyes change colour on reduction, which living cells bring about.)
A short description of test [2]: Cytotoxicity against 5-fluorouracil-resistant human Bel7402 cells assessed as growth inhibition after 72 hrs by MTT assay. As to conditions: Bel-7402, 72 h.
The subject of test [3] is HepG2. The experiment in a line: Cytotoxicity against human HepG2 cells assessed as growth inhibition after 72 hrs by MTT assay. As to conditions: for IC50: HepG2, 72 h.
Test [4] can be described thus: (§2) Cytotoxicity against human HuH7 cells assessed as growth inhibition after 72 hrs by MTT assay. The settings on record: Huh-7, 72 h.
The test system of another test is A875. Described as §1.
Test [5] concerns HepG2. The experiment in a line: Cytotoxicity against human HepG2 cells assessed as cell shrinkage at 10 ug/ml after 48 hrs by inverted microscopic analysis.
Another test relates to Huh-7. Described as §2.
Test [6] concerns HepG2. Put plainly: Cytotoxicity against human HepG2 cells assessed as decrease in cell level at 10 ug/ml after 48 hrs by inverted microscopic analysis.

Activity calls are given as the source filed them. No cut-off for these calls is given here.

As a reminder, the IC50 is the concentration that inhibits the measured activity by half. Consider `C[C@]12CC[C@H](O)CC1=CC[C@@H]1[C@@H]2CC[C@]2(C)/C(=N/N=C3\C(=O)Nc4ccc(I)cc43)CC[C@@H]12`, for which the IC50 in test [1] is 43.7 µM; in test [2] it was 14.1 µM; with HepG2 [3], 22.5 µM; in test [4] it was > 70 µM.
Taken in the same sequence, the figures for `C[C@]12CC[C@H](O)CC1=CC[C@@H]1[C@@H]2CC[C@]2(C)/C(=N/Cc3ccccc3)CC[C@@H]12` were 42.5 µM, > 100 µM, 32.6 µM and > 100 µM.
Taken in the same sequence, the figures for `C[C@]12CC[C@H](O)CC1=CC[C@@H]1[C@@H]2CC[C@]2(C)/C(=N/Nc3ccccc3)CC[C@@H]12` were > 100 µM, 29.9 µM, 43.1 µM and 55.4 µM.
For `C[C@]12CC[C@H](O)CC1=CC[C@@H]1[C@@H]2CC[C@]2(C)/C(=N/N=C3\C(=O)Nc4ccccc43)CC[C@@H]12`, the “growth inhibition (GI)” value with A875, in the test on HepG2 [3] and with Huh-7 was “Dose-dependent effect” each time. Also, the IC50 came to 25.2 µM in test [1], 21.8 µM in test [2], 13.3 µM with HepG2 [3] and 28.2 µM in test [4]. Further, the outcome in the test with HepG2 [5] and in the test on HepG2 [6] was Active.
In the case of `C[C@]12CC[C@H](O)CC1=CC[C@@H]1[C@@H]2CC[C@]2(C)/C(=N/N=C3\C(=O)Nc4ccc([N+](=O)[O-])cc43)CC[C@@H]12`, the IC50 worked out at 69 µM in test [1], 10.1 µM in test [2], 27.4 µM with HepG2 [3] and 30.6 µM in test [4].
Taken in the same sequence, the figures for `CC(C)c1ccc(/N=C2\CC[C@H]3[C@@H]4CC=C5C[C@@H](O)CC[C@]5(C)[C@H]4CC[C@]23C)cc1` were 61.5 µM, > 90 µM, 44.3 µM and > 90 µM.
As to `C[C@]12CC[C@H](O)CC1=CC[C@@H]1[C@@H]2CC[C@]2(C)/C(=N/N=C3\C(=O)Nc4ccc(Br)cc43)CC[C@@H]12`, the “growth inhibition (GI)” value with A875, in the test with HepG2 [3] and in the test with Huh-7 was “Dose-dependent effect” in each case. Besides, the IC50 came out at 14.8 µM in test [1], 5.97 µM in test [2], 16.2 µM with HepG2 [3] and 13.9 µM in test [4]. Further, the outcome with HepG2 [5] and in the test with HepG2 [6] was Active.
Turning to `O=c1[nH]cc(F)c(=O)[nH]1` [FLUOROURACIL], the “growth inhibition (GI)” value in the test with A875, in the test with HepG2 [3] and in the test on Huh-7 was “Dose-dependent effect” each time. Besides, the IC50 was > 150 µM in test [1], > 700 µM in test [2], > 150 µM in the test with HepG2 [3] and > 100 µM in test [4].
`C[C@]12CC[C@H](O)CC1=CC[C@@H]1[C@@H]2CC[C@]2(C)/C(=N/Nc3ncccc3Cl)CC[C@@H]12`: the half-inhibitory concentration (IC50) (in test [1]; in the test with HepG2 [3]; in test [4]) was > 90 µM throughout.
`C[C@]12CC[C@H](O)CC1=CC[C@@H]1[C@@H]2CC[C@]2(C)/C(=N/c3ccccc3)CC[C@@H]12`: the IC50 was 82.7 µM in test [1], > 100 µM in test [2], 63.5 µM in the test with HepG2 [3] and > 100 µM in test [4].
`C[C@]12CC[C@H](O)CC1=CC[C@@H]1[C@@H]2CC[C@]2(C)/C(=N/N=C3\C(=O)Nc4cc(F)ccc43)CC[C@@H]12`: the “growth inhibition (GI)” value in the test on A875, in the test on HepG2 [3] and with Huh-7 was “Dose-dependent effect” each time. In addition, the IC50 in test [1] came out at 29.6 µM; in test [2] it was 12.8 µM; with HepG2 [3] it was 19.7 µM; in test [4] it was 22.3 µM.
